Measurements: patent US20100305202A1, “LYOPHILIZED PHARMACEUTICAL COMPOSITION WITH IMPROVED STABILITY CONTAINING TAXANE DERIVATIVES, AND METHOD OF MANUFACTURING THE SAME” (priority 2007, published 2010)

Experiments:
[1] = no additive; cited from earlier work
[2] = Solubility of docetaxel in distilled water with PVP and HPBCD (Experimental Example 1); type: physicochemical
Method: The solubility of docetaxel was measured by performing liquid chromatography with UV detector (230 nm).
The solubility of docetaxel in distilled water proportionally increases between 10% and 30% of weight ratio (w/v %) of hydroxypropyl β-cyclodextrin (HPBCD).
Further, the ratio of HPBCD relative to docetaxel was at least 1:11 and the concentration of HPBCD will be lowered if the concentration unit (w/v) is converted into (mg/mL) unit. Therefore, docetaxel may be solubilized even when the ratio of docetaxel:HPBCD becomes smaller than 1:11. Therefore, according to the present invention, it is preferable to use more than 1 part by weight of hydroxypropyl β-cyclodextrin (HPBCD), and more preferably 5 parts by weight relative to 1 part by weight of the taxoid.

CC(=O)O[C@@]12CO[C@@H]1C[C@H](O)[C@@]1(C)C(=O)[C@H](O)C3=C(C)[C@@H](OC(=O)[C@H](O)[C@@H](NC(=O)OC(C)(C)C)c4ccccc4)C[C@@](O)([C@@H](OC(=O)c4ccccc4)[C@H]21)C3(C)C [docetaxel]
commonly known solubility of docetaxel in distilled water [1]: 0.025 µg/mL
better solubility with HPBCD versus distilled water ([2]; 31.1 mg/mL versus 0.000025 mg/mL): 1.2 million
solubility of docetaxel added with HPBCD in distilled water ([2]; with hydroxypropyl β-cyclodextrin (HPBCD)): 31.1 mg/mL
